Experiment [1] deals with Caulobacter DNA replication. Kind of experiment: Analysis of DNA replication (32P-labeled dGTP incorporation, DNA-content FACS). The experiment is classed as cell-based, Caulobacter crescentus. Particulars: 10 μg/ml A22 or 5 mg/ml HU. An excerpt: We first examined the incorporation of radiolabeled dGTP into DNA, which linearly correlates with the rate of DNA replication. […] To assess the effect of A22 on DNA replication during the cell cycle, the radiolabeled nucleotide incorporation assay was repeated using synchronized cultures at different points in the cell cycle. Untreated cells display a dramatic rise in radioactivity levels characteristic of DNA replication initiation at the swarmer-to-stalked cell transition. This rise in radioactivity levels was also observed in A22-treated cells (FIG. 6A).
Finally, we examined the DNA content of A22-treated cells by FACS.
Analysis of DNA Replication. DNA replication was assessed by incorporation of 32P-labeled dGTP) or chromomycin-stained DNA-content FACS analysis as described previously.

For experiment [2], the system named is HoIB-GFP. As to the kind of experiment: HoIB-GFP (replisome) localization. The experiment is classed as cell-based, Caulobacter crescentus. To be noted: 1 hr treatment. The method, then:
To assess the ability of these cells to assemble a replisome at the replication origins, A22 was administered to cells expressing a fusion of GFP to the HoIB subunit of DNA polymerase.

Experiment [3] deals with E. coli MG1655. Kind of experiment: Determination of minimum inhibitory concentration (MIC). The experiment is classed as cell-based. Particulars: Escherichia coli, MG1655, Example 2; methods as in Example 1; read-out: MIC E. coli. In a few lines:
(§1)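 Two-fold serial agar dilution on L agar and also on Mueller Hinton agar (pH 7.3); 10 µl of stationary-phase culture diluted in 0.85% NaCl to 10^6 cells/ml spotted per plate. MIC taken as lowest concentration inhibiting growth.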

Experiment [4] deals with P. putida NBRC14164. The description is as above. The experiment is classed as cell-based, Pseudomonas putida. To be noted: Pseudomonas putida, NBRC14164, Example 2; methods as in Example 1; read-out: MIC P. putida. The method in brief: as §1
Experiment [5] relates to S. typhimurium NBRC13245. The description is as above. The experiment is classed as cell-based, Salmonella typhimurium. Particulars: Salmonella enterica, Example 2; methods as in Example 1; read-out: MIC S. typhimurium. The method in brief: as §1
For experiment [6], the system named is B. subtilis 168. The description is as above. The experiment is classed as cell-based, Bacillus subtilis. To be noted: Bacillus subtilis, 168, Example 2; methods as in Example 1; read-out: MIC B. subtilis. The method in brief:
as §1

Experiment [7] concerns S. aureus subsp. aureus NBRC15035. Described as above. The experiment is classed as cell-based, Staphylococcus aureus. To be noted: Staphylococcus aureus, NBRC15035, Example 2; methods as in Example 1; read-out: MIC S. aureus. In a few lines:
as §1

Experiment [8] concerns E. coli MG1655. Kind of experiment: Microscopic observation of cell shape. The experiment is classed as cell-based. To be noted: Example 2; methods as in Example 1. In a few lines: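 E. coli K-12 MG1655 grown in Lennox broth with 0.1% glucose (pH 7.2), exposed to compound, methanol-fixed 5 min and examined by differential interference contrast microscopy. Anucleate cells scored after DAPI staining (5 μg/ml) using combined fluorescence phase-contrast.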

Experiment [9] deals with E. coli K-12 strains (ponB, mreB alleles). Kind of experiment: MICs of mecillinam and A22 for E. coli K-12 strains. The experiment is classed as cell-based. To be noted: Escherichia coli. The method, then: Determination of MIC Minimal inhibitory concentrations (MICs) were determined using a standard 2-fold serial dilution format on L agar plates. Ten microliters of stationary culture diluted in 0.85% NaCl to 10^6 cells/ml were spotted on per plate. […] MICs were also determined on Mueller Hinton agar plates (0.2% beef extract, 1.75% acid digest of casein, 0.15% soluble starch, 1.5% agar, pH 7.3).

In experiment [10] the test system is E. coli JA221, JST975. As to the kind of experiment: Cell shapes of A22-resistant mutant JA221 and parent JST975. To be noted: mecillinam treatment (1 μg/ml, 2 h, 37° C.). The experiment is classed as cell-based. Here is the method:
FIG. 9. Effects of A22 and mecillinam on cell shapes of the A22-resistant mutant JA221. Exponentially growing cells of the A22-resistant mutant strain JA221 and the parent strain JST975 were treated with 1 μg/ml mecillinam or 10 μg/ml A22 for 2 h at 37° C. Differential interference contrast microphotographs are shown.
After prolonged (9 days) incubation of the JST975 assay plates, several isolated colonies that grew up within the clear growth inhibitory zones were purified on L plates and their A22-sensitivity was examined.

Structures are written as SMILES. Converted amounts (≈) assume the structure as drawn. Where two headings read alike, the source gives them in different places.

The text below walks through data of patent US7855228B2, “Antibiotics targeting MreB” (The Board of Trustees of the Leland Stamford Junior …, priority 2005, dated 2010).

Turning to `NC(=O)NO` [HU, hydroxyl-urea, reference compound], the “Incorporation of radiolabeled dGTP, synchronized cultures (replication initiation)” value in experiment [1] is “no such increase in radioactivity levels”. In addition, in [2], the HoIB-GFP localization result is “rapid delocalization of HoIB-GFP”.
For `CC1(C)S[C@@H]2[C@H](/N=C/N3CCCCCC3)C(=O)N2[C@H]1C(=O)O` [mecillinam, reference compound], the MIC in experiment [3] is 0.0977 µg/mL (≈ 0.3 µM); in [4] it was above 100 µg/mL; in [5], 0.0977 µg/mL (≈ 0.3 µM); in experiment [6] it was 12.5 µg/mL (≈ 38.4 µM); in experiment [7], 50 µg/mL (≈ 154 µM); in experiment [9] (read-out: MICs, strain JA221 (ponB −, mreB221)), 0.125 µg/mL (≈ 0.384 µM). Besides, the MIC was 0.25 µg/mL (≈ 0.768 µM) in [9] (read-out: MICs, strain JE1011 (ponB +, mreB +)); 0.125 µg/mL (≈ 0.384 µM) in experiment [9] (read-out: MICs, strain JM109/pMW218 (ponB +, mreB +/−)); 0.125 µg/mL (≈ 0.384 µM) in experiment [9] (read-out: MICs, strain JM109/pMreB1 (ponB +, mreB +/+)); 0.125 µg/mL (≈ 0.384 µM) in experiment [9] (read-out: MICs, strain JM109/pMreB221 (ponB +, mreB +/mreB221)); 0.125 µg/mL (≈ 0.384 µM) in experiment [9] (read-out: MICs, strain JST975 (ponB −, mreB +)); 0.125 µg/mL (≈ 0.384 µM) in experiment [9] (read-out: MICs, strain JSTA220 (ponB −, mreB +)). In addition, the MIC turned out to be 0.125 µg/mL (≈ 0.384 µM) in experiment [9] (read-out: MICs, strain JSTA221 (ponB −, mreB221)); 0.25 µg/mL (≈ 0.768 µM) in [9] (read-out: MICs, strain WA220 (ponB +, mreB +)); 0.25 µg/mL (≈ 0.768 µM) in experiment [9] (read-out: MICs, strain WA221 (ponB +, mreB221)). Besides, the Shape entry in experiment [8] is reported as “Sphere”. Further, in [10], the “Cell shape of resistant mutant JA221” value is on record as “formed spherical cells”.
Consider `CO[C@@H]1[C@@H](OC(N)=O)[C@@H](O)[C@H](Oc2ccc3c(O)c(NC(=O)c4ccc(O)c(CC=C(C)C)c4)c(=O)oc3c2C)OC1(C)C` [novobiocin], for which the HoIB-GFP localization entry in experiment [2] is “rapid delocalization of HoIB-GFP”.
